According to US9821002B2, “Method for alleviating radiation injury with isorhamnetin-3-O-β-D-glucoside” (Sinotai Oncology Associate., Ltd., priority 2015, dated 2017):

What was measured:
NMuMG cells = assay: Clonogenic assay after X-ray irradiation; assay type: cell-based, mouse; conditions: 30 μM, 2 h pretreatment, X-ray 2, 4, 6 Gy, colonies after two weeks
Description: (§1) Eight groups of BNL CL.2 cells (i.e., a normal control group referred to as Normal Control Group 1-A, an isorhamnetin-3-O-β-D-glucoside group referred to as Isorhamnetin-3-O-β-D-glucoside Group 1-A, three X-ray control groups referred to as X-Ray Control Groups 1-A to 3-A, and three experimental groups referred to as Experimental Groups 1-A to 3-A) and eight groups of NMuMG cells (i.e., a normal control group referred to as Normal Control Group 1-B, an isorhamnetin-3-O-β-D-glucoside group referred to as Isorhamnetin-3-O-β-D-glucoside Group 1-B, three X-ray control groups referred to as X-Ray Control Groups 1-B to 3-B, and three experimental groups referred to as Experimental Groups 1-B to 3-B) were prepared based on the procedure set forth in “Source and cultivation of cell lines” of “Experimental materials”. Specifically, BNL CL.2 cells in each group were cultivated using 5 mL of a corresponding medium shown in Table 1 and a 6-cm Petri dish in an amount of 2×10^5 cells per dish. Likewise, NMuMG cells in each group were cultivated using 5 mL of a corresponding medium shown in Table 1 and a 6-cm Petri dish in an amount of 2.5×10^5 cells per dish. The cultivation was conducted in an incubator (37° C., 5% CO2) for 24 hours. […]

BNL CL.2 cells = assay: Clonogenic assay after X-ray irradiation; assay type: cell-based, mouse; conditions: 30 μM, 2 h pretreatment, X-ray 2, 4, 6 Gy, colonies after two weeks
Description: as §1

COc1cc(-c2oc3cc(O)cc(O)c3c(=O)c2O[C@@H]2O[C@H](CO)[C@@H](O)[C@H](O)[C@H]2O)ccc1O [isorhamnetin-3-O-β-D-glucoside]
survival fraction (clonogenic assay) versus X-ray control group (NMuMG cells): higher than that of the X-ray control group
survival fraction (clonogenic assay) versus X-ray control group (BNL CL.2 cells): higher than that of the X-ray control group
